# Source: publication PMC8067632, “Assessment and Development of the Antifungal Agent Caspofungin for Aerosolized Pulmonary Delivery” (Pharmaceutics, 2021)
# Columns and labels:
# [1] = Stability of lyophilized formulations by HPLC; type: physicochemical; settings: caspofungin API lyophilized alone from water, 0 months; HPLC UV 220 nm
# Experimental: Lyophilization was accomplished using a VirTis benchtop manifold lyophilizer (SP Scientific, Stone Ridge, NY, USA) under vacuum of <50 mTorr. […] High-performance liquid chromatography (HPLC) analysis was carried out on a Waters 2695 separations module (Waters Corporation, Milford, MA, USA) equipped with an autosampler and a Waters 996 photodiode array detector. For impurity determinations a Waters Symmetry (Waters Corporation, Milford, MA, USA) C18 3.5 µm, 4.6 × 75 mm column was used. For weight-weight assay a Waters Symmetry C18 Column (Waters Corporation, Milford, MA, USA), 3.5 µm, 4.6 mm × 100 mm column was employed. […] Reconstituted stability analyses were analyzed using the above HPLC methods.
# The stability of the lyophilized formulations was studied under two sets of temperature conditions, 2–5 °C and 25 °C. […] At the specified time points the test articles were reconstituted with normal saline to yield a 10 mg/mL solution for HPLC assay. For comparison, we also lyophilized caspofungin API alone.
# HPLC analysis was carried out on a Waters 2695 separations module equipped with
# an autosampler and a Waters 996 photodiode array detector. The HPLC method is de-
# Column: Waters symmetry C18 3.5 μm, 4.6 x 75 mm
# Column Temperature: 30 °C
# Autosampler temperature: 4 °C
# Mobile phase: A: Add 1.0 mL of perchloric acid and 0.75 g of sodium chloride in 1000
# mL HPLC grade water; B: Acetonitrile. […]
# [2] = tested on: Candida albicans ATCC44858; assay: microbe, parasite or virus in culture; type: cell-based; settings: CLSI broth microdilution, visual, duplicate
# Experimental: (§1) Antifungal potency of the test article(s) was measured using the in vitro broth microdilution assay under test conditions described by the Clinical and Laboratory Standards Institute. Minimum Inhibitory Concentration (MIC) is defined as the lowest concentration of an agent that causes a specified reduction in visible growth of the microorganism. Minimum Effective Concentration (MEC) is defined as the lowest concentration of an agent that leads to the growth of small, rounded, compact hyphal forms, as compared to the hyphal growth typically seen in the growth control well. MIC values were determined for 9 Candida spp., and MEC values were determined for filamentous fungus species (Aspergillus fumigatus and Trichophyton rubrum). Details of the test article preparations and methodologies are described in Supplementary Material S1.
# (§2) Following incubation, the test plates were visually examined and wells were scored for growth or complete growth inhibition to define the MIC values. Microscopy examination was used to determine the MEC values. Each test substance was evaluated in duplicate and the results are the duplicate test values. Vehicle-control and an active reference agent were used as blank and positive controls, respectively. […]
# (§3) S1. In Vitro Testing, Test Article Preparations
# (§4) The 5 mg/mL stock solution was prepared as the following. The refrigerated vial was equilibrated to room temperature. Test vial was reconstituted aseptically with 10.5 mL 0.9% NaCl. The powder was dissolved completely, mixing until a clear solution was ob-tained. The final concentration was 5.0 mg/mL of caspofungin freebase. The reconstituted solution was stable for 1 hr at room temperature. The 5 mg/mL stock solution was then […]
# (§5) The refrigerated vial was equilibrated to room temperature. The powder was dis-solved completely, mixing until a clear solution was obtained. Test vial was reconstituted aseptically with 1.8 mL 0.9% NaCl. The white to off-white powder was dissolved com-pletely, mixing gently until a clear solution was obtained. The final concentration was 5.0 mg/mL of caspofungin freebase. The reconstituted solution was used within 1 hr at room temperature. The 5 mg/mL stock solution was then diluted with 0.9% NaCl to prepare the […]
# (§6) 1.3. Caspofungin Diacetate
# (§7) The 5 mg/mL API stock solution was prepared as the following. The refrigerated vial was equilibrated to room temperature. Test vial was filled aseptically with 1.8 mL 0.9%
# (§8) NaCl. The powder was dissolved completely, mixing until a clear solution was obtained.
# (§9) The final concentration was 5.0 mg/mL of caspofungin freebase. The reconstituted solu-tion was used within 1 hr at room temperature. The 5 mg/mL stock solution was then […]
# (§10) g compound, corresponding to 1.2 mg active compound with a correction factor of 2.40 was added 0.375 mL of water for injection to generate the 3.2 mg/mL working stock solution for testing. The 3.2 mg/mL working stock solution was 2-fold diluted seri-ally in 0.9% NaCl to prepare a total of eleven 50-fold stock solutions, concentrations rang-ing from 3.2 to 0.003 mg/mL. A 4 μL aliquot of each dilution was added to 196 μL of broth medium seeded with the organism suspension in wells of a 96 well plate (fungal cell count: 1 x 10^3 to 1 x 10^4 colony forming units per mL). The final volume was 200 μL in each […]
# [3] = tested on: Candida albicans ATCC90028; assay: microbe, parasite or virus in culture; type: cell-based; settings: CLSI broth microdilution, visual, duplicate
# Experimental: as §1, §2, §3, §4, §5, §6, §7, §8, §9, §10
# [4] = tested on: Candida tropicalis ATCC 200956; assay: microbe, parasite or virus in culture; type: cell-based; settings: CLSI broth microdilution, duplicate
# Experimental: as §1, §2, §3, §4, §5, §6, §7, §8, §9, §10
# [5] = tested on: Candida albicans Azole-R (20183.073); assay: microbe, parasite or virus in culture; type: cell-based; settings: CLSI broth microdilution, azole-resistant strain, duplicate
# Experimental: as §1, §2, §3, §4, §5, §6, §7, §8, §9, §10
# [6] = tested on: Candida glabrata ATCC 36583; assay: microbe, parasite or virus in culture; type: cell-based; settings: CLSI broth microdilution, duplicate
# Experimental: as §1, §2, §3, §4, §5, §6, §7, §8, §9, §10
# [7] = tested on: Candida parapsilosis ATCC 22019; assay: microbe, parasite or virus in culture; type: cell-based; settings: CLSI broth microdilution, duplicate
# Experimental: as §1, §2, §3, §4, §5, §6, §7, §8, §9, §10
# [8] = tested on: Candida albicans Azole-R (20186.025); assay: microbe, parasite or virus in culture; type: cell-based; settings: CLSI broth microdilution, azole-resistant strain, duplicate
# Experimental: as §1, §2, §3, §4, §5, §6, §7, §8, §9, §10
# [9] = tested on: Candida albicans ATCC90028 + 50%human serum; assay: microbe, parasite or virus in culture; type: cell-based; settings: CLSI broth microdilution, duplicate
# Experimental: as §1, §2, §3, §4, §5, §6, §7, §8, §9, §10
# Candida krusei ATCC 6258 = assay: microbe, parasite or virus in culture; type: cell-based; settings: CLSI broth microdilution, duplicate
# Experimental: as §1, §2, §3, §4, §5, §6, §7, §8, §9, §10
# [10] = tested on: invasive aspergillosis patients; settings: cited from earlier work
# Excerpt: Invasive Pulmonary Aspergillosis (IPA) and Pneumocystis jiroveci Pneumonia (PCP) are serious fungal pulmonary diseases for immunocompromised patients. The brand name drug […]® (Caspofungin acetate for injection) is FDA approved to treat IPA, but is only 40% effective. Efficacious drug levels at the lung infection site are not achieved by systemic administration. Increasing the dose leads to toxicity. The objective, here, is to reformulate caspofungin for aerosolization to high drug concentration by lung targeted delivery and avoid systemic distribution. Described in this paper is a new, ... || Morphologically Aspergillus grows and propagates within the lung cavity. […] This may explain low human efficacy (40%) of caspofungin in treating IPA. Drug concentr ... || Caspofungin for injection (tradename: […]®) is sold by Merck & Co., Inc. The approved […]® dose is a 70 mg loading dose and then 50 mg/daily. Previous intravenous (IV) studies with caspofungin in animals have shown that IV administered drug only delivers about 5% of the drug level in blood to the lungs. […] Most of the IV drugs is distributed to other sensitive target organs, such as the liver and kidneys, which if given in higher doses, can lead ... || (+ 1 further places)
# [11] = tested on: Aspergillus fumigatus ATCC 13073; assay: Broth microdilution MEC; type: cell-based; settings: CLSI broth microdilution, microscopy, duplicate
# Experimental: as §1, §2, §3, §4, §5, §6, §7, §8, §9, §10
# [12] = tested on: Aspergillus fumigatus ATCC204305; assay: Broth microdilution MEC; type: cell-based; settings: CLSI broth microdilution, microscopy, duplicate
# Experimental: as §1, §2, §3, §4, §5, §6, §7, §8, §9, §10
# [13] = tested on: Trichophyton rubrum ATCC 10218; assay: Broth microdilution MEC; type: cell-based; settings: CLSI broth microdilution, microscopy, duplicate
# Experimental: as §1, §2, §3, §4, §5, §6, §7, §8, §9, §10
smiles,measurement,setting,value
CC[C@H](C)C[C@H](C)CCCCCCCCC(=O)N[C@H]1C[C@@H](O)[C@@H](NCCN)NC(=O)[C@@H]2[C@@H](O)CCN2C(=O)[C@H]([C@H](O)CCN)NC(=O)[C@H]([C@H](O)[C@@H](O)c2ccc(O)cc2)NC(=O)[C@@H]2C[C@@H](O)CN2C(=O)[C@H]([C@@H](C)O)NC1=O [Caspofungin Diacetate],HPLC Purity %,[1],95.42%
same,MIC,[2],0.25 µg/mL
same,MIC,[3],0.25 µg/mL
same,MIC,[4],0.25 µg/mL
same,MIC,[5],0.25 µg/mL
same,MIC,[6],0.25 µg/mL
same,MIC,[7],1 µg/mL
same,MIC,[8],0.25 µg/mL
same,MIC,[9],0.125 µg/mL
same,MIC,Candida krusei ATCC 6258,1 µg/mL
same,response rate (complete or partial response),"[10]; IPA patients, high dose group 200 mg/day intravenously",60%
same,favorable response,"[10]; IPA patients, standard dose group IV",44%
same,patients presenting with liver toxicity,"[10]; high dose group 200 mg/day IV, elevated liver enzymes and liver failure",65%
same,liver enzyme abnormalities,[10]; standard dose group IV,No liver enzyme abnormalities were observed
same,MEC,[11],0.0625 µg/mL
same,MEC,[12],0.125 µg/mL
same,MEC,[13],0.125 µg/mL
